Laboratory results published in patent US20220370416A1, “COMPOUNDS AND METHODS FOR TARGETED DEGRADATION OF KRAS” (Arvinas Operations, Inc., priority 2020, published 2022).

Key:
Assay type in all cases: cell-based
KRAS^G12C [1] = biological target: T1, KRAS^G12C (Homo sapiens, UniProt P01116, G12C); test: KRAS^G12C degradation by immunoblot in NCI-H23 cells; set-up: MRTX849-VHL bifunctional compounds engage and degrade endogenous KRAS^G12C in NCI-H2030 cells; endogenous in cells; host or cells: NCI-H2030, NCI-H358, MIA PaCa-2, SW1573, NCI-H23; details: for KRAS, two-way ANOVA significance vs DMSO: FIG. 9B
Experimental: (§1) NCI-H2030 (CRL-5914), MIA PaCa-2 (CRL-1420), NCI-H23 (CRL-5800), NCI-H358 (CRL-5807), and HCT-116 (CCL-247) cells were obtained from ATCC, expanded immediately, and frozen down. Vials were thawed and used within 20 passages. SW1573 cells were a gift from Arvinas and were handled in the same manner. NCI-H2030, NCI-H23, and NCI-H358 were cultured in RPMI (ATCC30-2001) supplemented with 10% FBS (Biological Industries; cat. no. S1480) and 1% Penicillin-Streptomycin (ThermoFisher; cat. no. 15140122). HCT-116 cells were maintained in high glucose DMEM (ThermoFisher; cat. no. 11965084) supplemented as above. MIA PaCa-2 cells were cultured in high glucose DMEM supplemented with 10% FBS, 2.5% horse serum (ThermoFisher; cat. no. 26050-088; lot 2109875), and 1% Penicillin-Streptomycin. SW1573 cells were maintained in DMEM/F12 Nutrient Mix with GlutaMAX supplement (ThermoFisher; cat. no. 10565018) with 10% FBS and 1% Penicillin-Streptomycin added. DPBS (ThermoFisher; cat. no. 14190250) was used to wash cells and 0.25% Trypsin-EDTA (ThermoFisher; cat. no. […]) was used to detach cells for passaging. […] The VHL ligand was generously provided by Arvinas.
(§2) Between 2.5×10^5 and 6.0×10^5 cells were seeded into 6-well plates (Corning; cat. no. 353046). The next day, media was removed and cells were treated with 2.5 μM LC-2 for 1, 2, 4, 8, 12, or 24 hours. […] For 24-hour time course experiments, cells were treated at the indicated times and concurrently lysed in RIPA buffer supplemented as described previously. For longer time course experiments and time courses in which cells were treated with LC-2 or LC-2 Epimer, cells were concurrently treated with either compound, then lysed by scraping in RIPA buffer at the indicated time points.
(§3) Between 2.5×10^5 and 5.0×10^5 cells were seeded into 6-well plates. The next day cells were pretreated with DMSO, 500 μM or 1 mM VHL ligand, 1 μM epoxomicin, 1 μM […], or 100 nM […] bafilomycin A1 for 1 hour. Media was then removed and cells were treated with DMSO, 2.5 μM LC-2 plus DMSO, 2.5 μM LC-2 Epimer plus DMSO, or co-treated with 2.5 μM LC-2 and the corresponding competitor/inhibitor. H2030 cells were treated for 4 hours and H23 cells were treated for 24 hours, after which cells were lysed by scraping in RIPA buffer supplemented as described previously.
(§4) Cell lysates were clarified at 21000×g for 15 mins at 4° C. Protein levels were quantified using a 50:1 mixture of bicinchoninic acid solution (Millipore Sigma; cat. no. B9643) and 4% (w/v) copper(II) sulfate solution (Millipore Sigma; cat. no. C2284) incubated at 37° C. for 30 mins. Absorbance values at 560 nm were read on an EnVision 2101 Multilabel Reader (PerkinElmer). Proteins were separated using 26 well Criterion TGX precast 4-15% (cat. no. 5671085) or 8-16% (cat. no. 5671105) gradient midi gels. After separation, proteins were transferred to nitrocellulose or PVDF membranes at 76 V for 2 hours at 4° C. Blots were then blocked in 5% milk in tris-buffered saline with Tween-20 (TBST; 20 mM Tris, 150 mM NaCl, 0.02% Tween-20). After blocking, blots were incubated in primary antibody overnight (12-18 hours) at 4° C. or for 2 hours at room temperature with mild agitation at the manufacturer's indicated dilution in either 5% milk or 5% BSA in TBST. Blots were then washed thrice with TBST for 5 mins at room temperature. After washing, blots were incubated with 1:5,000-1:10,000 of donkey anti-rabbit (GE Life Sciences; NA934) or sheep anti-mouse (GE Life Sciences; NA931) secondary antibody diluted in 5% milk for 1 hour at room temperature with mild agitation. Blots were again washed thrice with TBST for 5 mins. Chemiluminescent signal was generated using Amersham ECL Prime Western Blotting Detection Reagant (GE Life Sciences; cat. no. RPN2232) or SuperSignal West Femto Maximum Sensitivity Substrate (ThermoFisher; cat. no. 34095). Images were obtained using a Bio-Rad ChemiDoc Imager.

KRAS^G12C [2] = biological target: T1, KRAS^G12C; test: Engagement and degradation of endogenous KRAS^G12C in NCI-H2030 cells (blot quantitation); set-up: MRTX849-VHL bifunctional compounds engage and degrade endogenous KRAS^G12C in NCI-H2030 cells; endogenous in cells; host or cells: NCI-H2030; details: dose response (FIG. 2B)
KRAS^G12C [3] = biological target: T1, KRAS^G12C; test: KRAS^G12C engagement and degradation by immunoblot in NCI-H2030 cells; set-up: MRTX849-VHL bifunctional compounds engage and degrade endogenous KRAS^G12C in NCI-H2030 cells; endogenous in cells; host or cells: NCI-H2030, NCI-H358, MIA PaCa-2, SW1573, NCI-H23; details: for rescue of LC-2 induced KRAS^G12C degradation by inhibitor: NCI-H2030, 1 μM inhibitor before 2.5 μM LC-2
Experimental: as §1, §2, §3, §4

C=C(F)C(=O)N1CCN(c2nc(OC[C@@H]3CCCN3CCC(=O)NCCOCCOCCC(=O)N[C@H](C(=O)N3C[C@H](O)C[C@H]3C(=O)NCc3ccc(-c4scnc4C)cc3)C(C)(C)C)nc3c2CCN(c2cccc4cccc(Cl)c24)C3)C[C@@H]1CC#N [LC-1, (2S,4R)-1-((S)-2-(tert-butyl)-16-((S)-2-(((7-(8-chloronaphthalen-1-yl)-4-((S)-3-(cyanomethyl)-4-(2-fluoroacryloyl)piperazin-1-yl)-5,6,7,8-tetrahydropyrido[3,4-d]pyrimidin-2-yl)oxy)methyl)pyrrolidin-1-yl)-4,14-dioxo-7,10-dioxa-3,13-diazahexadecanoyl)-4-hydroxy-N-(4-(4-methylthiazol-5-yl)benzyl)pyrrolidine-2-carboxamide]
KRAS, two-way ANOVA significance vs DMSO (KRAS^G12C [1]; NCI-H23, 0.1 μM): N.S. | KRAS, two-way ANOVA significance vs DMSO (KRAS^G12C [1]; NCI-H23, 10 μM): N.S. | engagement of KRAS^G12C (KRAS^G12C [2]): engages KRAS^G12C in a dose dependent manner | effect on KRAS protein levels (KRAS^G12C [3]; 10 μM, compound screen (FIG. 2C)): increased KRAS protein levels | KRAS, two-way ANOVA significance vs DMSO (KRAS^G12C [3]; NCI-H2030, 10 μM, FIG. 9A): * (* p < 0.05) | KRAS engagement (band shift) (KRAS^G12C [3]; NCI-H2030, 24 hours, at 1, 2.5, 10, and 25 μM): clear band shift | reduction in KRAS levels (KRAS^G12C [3]; NCI-H2030, 24 hours, increasing concentrations): small, non-significant reduction

NS(=O)(=O)OC[C@@H]1C[C@@H](n2ccc3c(N[C@H]4CCc5ccccc54)ncnc32)C[C@@H]1O [MLN924, reference compound]
rescue of LC-2 induced KRAS^G12C degradation by inhibitor (KRAS^G12C [3]): rescued KRAS^G12C levels

CC[C@H](C)[C@H](NC(=O)[C@H]([C@@H](C)CC)N(C)C(C)=O)C(=O)N[C@H](C(=O)N[C@@H](CC(C)C)C(=O)[C@@]1(C)CO1)[C@@H](C)O [epoxomicin, reference compound]
rescue of LC-2 induced KRAS^G12C degradation by inhibitor (KRAS^G12C [3]): rescued KRAS^G12C levels

CO/C1=C\C(C)=C\[C@@H](C)[C@@H](O)[C@@H](C)C/C(C)=C/C=C/[C@H](OC)[C@@H]([C@@H](C)[C@@H](O)[C@H](C)[C@@]2(O)C[C@@H](O)[C@H](C)[C@@H](C(C)C)O2)OC1=O [BafA1, bafilomycin A1, reference compound]
rescue of LC-2 induced KRAS^G12C degradation by inhibitor (KRAS^G12C [1]; NCI-H23, pre-treatment before LC-2): unable to rescue
